Results reported in PubChem BioAssay (NCI).
Values joined by “and” are separate entries in the source; they are usually repeats but may differ in a detail not shown here. Equal values may be shown once.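 48-hour exposure; five concentrations; linearly interpolated endpoints. The concentration for 50% growth inhibition is given as GI50. TGI is the concentration that stops growth completely.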 Where a SMILES comes first, the peptide text is derived from it. The star is where a group is joined. Trt = c1ccc(C(c2ccccc2)(c2ccccc2)*)cc1; Cbz = O=C(OCc1ccccc1)*

What was measured:
Assay in all cases: NCI anticancer screen, dose series, 48 h
SR leukemia = system: SR leukemia
SF-295 CNS = system: SF-295 CNS
HCT-116 colon = system: HCT-116 colon
K-562 leukemia = system: K-562 leukemia
MDA-MB-435 = system: MDA-MB-435
NCI-H460 lung = system: NCI-H460 lung
HCT-15 colon = system: HCT-15 colon
MOLT-4 leukemia = system: MOLT-4 leukemia
SK-MEL-2 melanoma = system: SK-MEL-2 melanoma
OVCAR-3 ovarian = system: OVCAR-3 ovarian

Compound | GI50 (SR leukemia) [µM] | TGI (SR leukemia) [µM] | GI50 (SF-295 CNS) [µM] | TGI (SF-295 CNS) | GI50 (HCT-116 colon) [µM] | TGI (HCT-116 colon) | GI50 (K-562 leukemia) [µM] | TGI (K-562 leukemia) | GI50 (MDA-MB-435) [µM] | TGI (MDA-MB-435) [µM] | GI50 (NCI-H460 lung) [µM] | TGI (NCI-H460 lung) | GI50 (HCT-15 colon) [µM] | TGI (HCT-15 colon) | GI50 (MOLT-4 leukemia) [µM] | TGI (MOLT-4 leukemia) | GI50 (SK-MEL-2 melanoma) [µM] | TGI (SK-MEL-2 melanoma) [µM] | GI50 (OVCAR-3 ovarian) [µM] | TGI (OVCAR-3 ovarian)
COc1cc(CNCCCCCCN2C(=O)c3cccc4cccc(c34)C2=O)ccc1O | 2.36 | 7.8 | 9.13 | 25.4 µM | 3.14 | 11.2 µM | 2.91 | 11 µM | 3.89 | 15.9 | 3.71 | 15.9 µM | 10.4 | 29.6 µM | 3.45 | 16.2 µM | 5.56 | 18.2 | 4.11 | 16.6 µM
CCCCN(CCCC)C(=O)[C@H](CC)[C@@H]1CC[C@@H](C)[C@@H]([C@H](C)[C@@H](O)[C@@H](C)C(=O)[C@H](CC)C2O[C@]3(C=C[C@@H](O)[C@]4(CC[C@@](C)([C@H]5CC[C@](O)(CC)[C@H](C)O5)O4)O3)[C@H](C)C[C@@H]2C)O1 (some centres not stated) | 2.89 | 8.53 | 2.06 | 6.38 µM | 2.39 | 6.9 µM | 2.66 | 18.4 µM | 2.92 | 10.1 | 1.99 | 4.47 µM | 2.31 | 6.12 µM | 2.68 | 8.31 µM | 2.67 | 7.53 | 1.87 | 4.84 µM
NC(N)=N/N=C/c1c(-c2ccsc2)nc2n1CCS2 | 12.1 | 28.8 | > 100 | > 100 µM | 14.3 | 27.3 µM | 22.2 | 65.8 µM | 19.8 | 47.9 | 27.9 | > 100 µM | 24.7 | 72.7 µM | 15.3 | 42.9 µM | 51.9 | > 100 | 0.365 | 24.1 µM
O=C1Nc2ccc(Cl)cc2/C1=C\c1c(-c2ccc(Cl)cc2)nc2sc(C3CC3)nn12 | 12.6 | 75.8 | 2.23 | 6.89 µM | 3 | 11.4 µM | 7.37 | 24.7 µM | 9.36 | 28.9 | 3.89 | 14.1 µM | 4.36 | 17.6 µM | 44.9 | > 100 µM | 4.9 | 19.8 | 4.16 | 15.2 µM
C=C1C(=O)O[C@H]2[C@H]1CC/C(COC(=O)c1cc(OC)c(OC)c(OC)c1)=C\CC[C@@]1(C)O[C@@H]21 | 0.342 | 7.33 | 3.84 | 15.8 µM | 0.409 | 1.48 µM | 0.388 | 11.5 µM | 1.64 | 4.13 | 2.35 | 6.52 µM | 0.418 | 1.82 µM | 1.64 | 5.55 µM | 1.6 | 3.63 | 0.39 | 1.44 µM
COC(=O)C(CO)NC(=O)C(CSC(c1ccccc1)(c1ccccc1)c1ccccc1)NC(=O)OCc1ccccc1 (configuration not stated) (Cbz-Cys(Trt)-Ser-OMe; configuration not given here) |  | 0.221 |  | 34.5 µM |  | 42.1 µM |  | > 49 µM |  | 30.2 |  | 33.6 µM |  | > 52.9 µM |  | > 32.1 µM |  | 34.5 |  | 28.6 µM
CC1CC2C3CCC4=CC(=O)C=CC4(C)C3(F)C(O)CC2(C)C1(O)C(=O)COP(=O)(O)O (configuration not stated) |  | > 100 | > 500 | > 500 µM | > 500 | > 500 µM | > 500 | > 500 µM | > 500 | > 500 | > 500 | > 500 µM | > 500 | > 500 µM | > 500 | > 500 µM | > 500 | > 500 | > 500 | > 500 µM
COc1cnc2c(c1)C(=O)c1c-2n(CCCNC2=NCCS2)c(=O)c2cc(F)ccc12 | 0.0499 | 2.04 | 0.0518 | 0.891 µM | 0.0825 | 1.83 µM | 0.249 | 2.92 µM | 0.75 | 2.37 | 0.0356 | 1.11 µM | 1.21 | 4.53 µM | 0.0421 | 0.514 µM | 15.8 | 32.7 | 0.567 | 2.27 µM
NS(=O)(=O)c1ccc(Nc2cc(-c3ccc(O)c(F)c3)[nH]n2)cc1 | 12.5 | > 25 | > 25 | > 25 µM | > 25 | > 25 µM | > 25 | > 25 µM | > 23.5 | > 25 | > 25 | > 25 µM | > 25 | > 25 µM | > 25 | > 25 µM | 11.4 | > 25 | 9.43 | > 25 µM
CO[C@H]1C[C@@H]2CC[C@@H](C)[C@@](O)(O2)C(=O)C(=O)N2CCCC[C@H]2C(=O)O[C@H]([C@H](C)C[C@@H]2CC[C@@H](OC(=O)C(C)(CO)CO)[C@H](OC)C2)CC(=O)[C@H](C)/C=C(\C)[C@@H](O)[C@@H](OC)C(=O)[C@H](C)C[C@H](C)\C=C/C=C/C=C/1C | 0.00251 | > 10 | < 0.001 | > 10 µM | > 10 | > 10 µM | 5.96 | > 10 µM | 2.36 | > 10 | 0.00131 | > 10 µM | 0.112 | > 10 µM | 0.22 | > 10 µM | 1.68 | > 10 | 0.685 | > 10 µM
CCOC(=O)[C@@H](C)C[C@H](Cc1ccccc1)NC(=O)c1csc([C@@H](C[C@H](C(C)C)N(C)C(=O)[C@@H](NC(=O)[C@H]2CCCCN2C)C(C)(C)CC)OC(C)=O)n1 | < 0.00167 | 3.39 | < 0.00167 | 1.87 µM | < 0.00167 | 3.02 µM | < 0.00167 | > 16.7 µM | < 0.00167 | < 0.00167 | < 0.00167 | > 12.9 µM | < 0.00167 | > 5.93 µM | 0.00338 | > 13.1 µM | < 0.00167 | > 16.7 | < 0.00167 | 
C#Cc1cccc(Nc2ncnc3cc(NC(=O)CCl)ccc23)c1 | 0.535 | 4.08 | 3.51 | 6.95 µM | 1.19 | 4.15 µM | 0.802 | 25 µM | 1.27 | 5.17 | 2.89 | 6.63 µM | 0.743 | 3.42 µM | 0.739 | 3.45 µM | 3.82 | 7.77 | 1.37 | 5.42 µM
CSC1=NC(=Nc2c(C)cccc2C)C2(CCC(C(C)(C)C)CC2)N1c1ccc(Cl)cc1 (configuration not stated) | 4.21 | > 100 | 29.9 | > 100 µM | 4.87 | > 100 µM | 4.76 | > 100 µM | 30.9 | > 100 | 4.68 | > 100 µM | 7.42 | > 100 µM | 6.82 | > 100 µM | > 100 | > 100 | 54.1 | > 100 µM
COC(=O)NC1C(C)OC(OC2C/C=C(/C)C3C=CC4C(OC5CC(OC6CCC(OC7CC(O)C(OC8CCC(O)C(C)O8)C(C)O7)C(C)O6)C(OC(C)=O)C(C)O5)C(C)CC(C)C4C3(C)/C(O)=C3/C(=O)OC4(CC(C=O)=CC(O)C4/C=C\2C)C3=O)CC1(C)[N+](=O)[O-] (configuration not stated) |  | 11 | 0.271 | 2.76 µM and 4.15 µM | 0.146 | 2.05 µM and 0.289 µM | 0.218 | 11 µM and 12.1 µM |  | 1.06 | 0.319 | 2.17 µM and 2.14 µM | 1.22 | 3.4 µM and 4.26 µM | 0.131 | 4.78 µM and 0.634 µM | 0.0551 |  | 0.484 | 2.7 µM and 2.12 µM
CC(C)=CCc1cc2c(cc1O)C1=C(C(=O)C3=C(C1=O)S(=O)(=O)CCN3)C(C=C(C)C)O2 (configuration not stated) | 0.87 | 10.9 | 2.38 | 5.1 µM | 0.474 | 1.77 µM | 2.24 | 14.6 µM | 0.061 | 0.227 | 0.454 | 2.3 µM | 1.77 | 4.3 µM | 0.718 | 3.99 µM | 1.44 | 5.29 | 0.403 | 1.37 µM
CN(C)c1ccc(/C=C\c2ccnc3ccccc23)cc1 |  | > 100 | 3.56 | > 44.7 µM | 5.34 | > 52.6 µM | > 21.1 | > 100 µM | 1.47 | > 30.5 | 5.2 | > 91.8 µM | 4.42 | > 100 µM | 14.5 | > 100 µM | 21.2 | > 100 | 7.88 | > 60 µM
Oc1ccc(Cl)cc1C(c1cc(Cl)ccc1O)C(Cl)(Cl)Cl | 1.5 | 5.34 | 1.97 | 4.76 µM | 1.56 | 2.97 µM | 2.28 | 5.59 µM | 1.95 | 4.21 | 2.13 | 4.58 µM | 1.94 | 5.07 µM | 1.54 | 5.06 µM | 2.12 | 5.36 | 1.92 | 4.23 µM
COc1cc(/C=C/C(=O)c2cccc(-n3cc(-c4cc(OC)c(OC)c(OC)c4)[nH]c3=O)c2)cc(OC)c1OC | 0.386 | > 100 | 4.96 | 19.5 µM | 0.749 | 2.13 µM | 0.591 | > 100 µM | 2.11 | 9.92 | 1.73 | 3.98 µM | 1.89 | 7.51 µM | 1.75 | 8.08 µM | 3.02 | 7.63 | 1.48 | 4.32 µM
COc1ccc2c(c1)OC(N)=C(C#N)C2c1cc(OC)c(OC)c(OC)c1 (configuration not stated) | 0.0345 | > 100 | 0.03 | > 44.4 µM | 0.0331 | > 37.5 µM | 0.0338 | > 100 µM | 0.0189 |  | 0.0345 |  | 0.034 | > 100 µM | 0.0365 | > 100 µM | 0.0321 | 0.151 | 0.0253 | 0.0648 µM
C/C(=N\O)c1ccc2ccc3ccccc3c2c1 |  | 48.7 |  | 86.9 µM |  | > 100 µM |  | 93 µM |  | 46.9 |  | > 100 µM |  | > 100 µM |  | 52.9 µM |  | > 100 |  | 90.9 µM
CN1CCN(CC(=O)N(C)c2ccc(N=C(c3ccccc3)c3c(O)[nH]c4ccc(C#N)cc34)cc2)CC1 | 0.721 | 5.62 | 3.14 | 15.8 µM | 1.02 | 2.47 µM | 0.575 | 11.6 µM | 1.66 | 4.04 | 1.38 | 3.25 µM | 3.55 | 14.9 µM | 0.601 | 9.38 µM | 3.39 | 15.7 | 3.19 | 14.2 µM
O=C1NC(=NCc2ccccc2Cl)S/C1=C\c1ccc2ncccc2c1 | 1.04 | > 19.6 | 9.59 | > 25 µM | 3.98 | > 25 µM | 12.7 | > 25 µM | 6.83 | > 25 | 10.6 | > 25 µM | 4.33 | > 25 µM | > 25 | > 25 µM | 8.5 | > 22.3 | 17.6 | > 25 µM
O=C(O)C1=C/C(=C(/c2ccccc2)c2cc(C(=O)O)c(O)c3ccccc23)c2ccccc2C1=O |  | > 100 |  | > 100 µM |  | > 100 µM |  | > 100 µM |  | > 100 |  | > 100 µM |  | > 100 µM |  | > 100 µM |  | > 100 |  | > 100 µM
